Ends that are not written are not given here.
How the values were obtained:
[1] = system: human peripheral blood mononuclear cells (MCP-1); assay: SPOT-synthesized derivative screen: production of chemokine MCP-1; type: cell-based; conditions: Table 12, No LPS, human PBMC, peptide at ~18-24 μM; for MCP1: background subtracted 139 (HH2 derivatives), 170 (1018 derivatives), 242 (1002 and hybrid peptides) pg/ml
Method: Venous blood (20 ml) from healthy volunteers was collected in Vacutainer® collection tubes containing sodium heparin as an anticoagulant (Becton Dickinson, Mississauga, ON) in accordance with UBC ethical approval and guidelines. Blood was diluted 1:1 with complete RPMI 1640 medium and separated by centrifugation over a Ficoll-Paque® Plus (Amersham Biosciences, Piscataway, N.J., USA) density gradient. White blood cells were isolated from the buffy coat, washed twice in RPMI 1640 complete medium, and the number of peripheral blood mononuclear cells (PBMC) was determined by Trypan blue exclusion. PBMC (5×10^5) were seeded into 12-well tissue culture dishes (Falcon; Becton Dickinson) at 0.75 to 1×10^6 cells/ml at 37° C. in 5% CO2. The above conditions were chosen to mimic conditions for circulating blood monocytes entering tissues at the site of infection via extravasation.
Following incubation of the cells under various treatment regimens, the tissue culture supernatants were centrifuged at 1000×g for 5 min, then at 10,000×g for 2 min to obtain cell-free samples. Supernatants were aliquoted and then stored at −20° C. prior to assay for various chemokines by capture ELISA (eBioscience and BioSource International Inc., CA, USA respectively)

[2] = system: LPS-stimulated human peripheral blood mononuclear cells (IL1-β); type: cell-based; conditions: Table 12, cells stimulated with 10 ng/ml LPS; for IL1β Production: LPS alone 1313 (HH2 derivatives), 1927 (1018 derivatives), 2455 (1002 and hybrid peptides) pg/ml
Method: LPS from P. aeruginosa strain H103 was highly purified free of proteins and lipids using the Darveau-Hancock method. Briefly, P. aeruginosa was grown overnight in LB broth at 37° C. Cells were collected and washed and the isolated LPS pellets were extracted with a 2:1 chloroform:methanol solution to remove contaminating lipids. Purified LPS samples were quantitated using an assay for the specific sugar 2-keto-3-deoxyoctosonic acid (KDO assay) and then resuspended in endotoxin-free water (Sigma-Aldrich).

[3] = system: methicillin resistant Staphylococcus aureus (MRSA) biofilm; conditions: approximate peptide concentration […] (around 3 μg/ml); compared to untreated samples
Method: Methods of assessment of anti-biofilm activity—Biofilm formation was initially analyzed using a static abiotic solid surface assay as described elsewhere (de la Fuente-Nunez et al., 2012). Dilutions (1/100) of overnight cultures were incubated in BM2 biofilm-adjusted medium [62 mM potassium phosphate buffer (pH 7), 7 mM (NH4)2SO4, 2 mM MgSO4, 10 μM FeSO4, 0.4% (wt/vol) glucose, 0.5% (wt/vol) Casamino Acids], or a nutrient medium such as Luria Broth, in polypropylene microtiter plates (Falcon, United States) in the absence (control) or presence of peptide. Peptide was added at time zero (prior to adding the diluted, overnight cultures) in varying concentrations, and the decrease in biofilm formation was recorded at 22-46 h for most bacteria. Planktonic cells were removed, biofilm cells adhering to the side of the tubes were stained with crystal violet, and absorbance at 595 nm was measured using a microtiter plate reader (Bio-Tek Instruments Inc., United States). Some peptides were screened against two Gram negative organisms, P. aeruginosa and K. pneumoniae using a Bioflux apparatus (AutoMate Scientific, Berkeley, Calif.; http://www.autom8.com/bioflux_biofilm.html), which allows for the high-throughput, real-time analysis of biofilms.

Substance	Fold increase in MCP1 cf. untreated cells [1]	MCP1 [1] [pg/mL]	Fold change in IL1β relative to no peptide LPS stimulated cells [2]	IL1β Production [2] [pg/mL]	% Biofilm inhibition [3] [%]
1002-W3: single substituted 1002 peptide (VQWWLIVWRIRK-NH2) [Peptide 1002-W3]	1.4	90.4	0.05	127	68
1002-G2: single substituted 1002 peptide (VGRWLIVWRIRK-NH2) [Peptide 1002-G2]	4.7	891.9	0.05	127	74
1002-K3: single substituted 1002 peptide (VQKWLIVWRIRK-NH2) [Peptide 1002-K3]	3.4	576.2	0.06	137	61
1002-V9: single substituted 1002 peptide (VQRWLIVWVIRK-NH2) [Peptide 1002-V9]	1.5	131.8	0.05	134	47
HH2-Q5: single substituted HH2 peptide (VQLRQRVAVIRA-NH2)	4.5	603	0.98	1284	25
1002-W6: single substituted 1002 peptide (VQRWLWVWRIRK-NH2) [Peptide 1002-W6]	0.9	-36.2	0.05	127	53
1018-Q12: single substituted 1018 peptide (VRLIVAVRIWRQ-NH2) [Peptide 1018-Q12]	0.8	-28	0.50	655	57
HH2-W2: single substituted HH2 peptide (VWLRIRVAVIRA-NH2)	12	1802	0.98	1293	70
1002-I12: single substituted 1002 peptide (VQRWLIVWRIRI-NH2) [Peptide 1002-I12]	0.9	-36.2	0.05	127	66
1018-Q11: single substituted 1018 peptide (VRLIVAVRIWQR-NH2) [Peptide 1018-Q11]	11	1773	1.24	1625	51
1002-Q12: single substituted 1002 peptide (VQRWLIVWRIRQ-NH2) [Peptide 1002-Q12]	6.1	1225.7	0.05	127	65
1018-K2: single substituted 1018 peptide (VKLIVAVRIWRR-NH2) [Peptide 1018-K2]	1.5	92	0.10	127	68
1002-G12: single substituted 1002 peptide (VQRWLIVWRIRG-NH2) [Peptide 1002-G12]	0.9	-36.2	0.10	240	50
